Experimental data reported in ChEMBL document CHEMBL1201862, “PubChem BioAssay data set” (2004).
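Where inhibition never reached the appropriate level, the endpoint shown equals the highest concentration tested. Otherwise, values were interpolated linearly from a five-concentration, 48-hour dose response in 96-well plates. GI50 marks 50% less growth.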 Active and inactive are the calls of the source. Cut-off read from the data, not from the text of the source: active = GI50 up to about 1.1 µM and inactive = higher.

Experiments:
Experiment in all cases: NCI-60 cell line screen, 48 h
EKVX = test system: EKVX
Hs-578T = test system: Hs-578T
NCI-H23 = test system: NCI-H23
PC-3 = test system: PC-3
UO-31 = test system: UO-31
KM12 = test system: KM12
OVCAR-5 = test system: OVCAR-5
SR = test system: SR
SK-OV-3 = test system: SK-OV-3
MDA-MB-231 = test system: MDA-MB-231
CAKI-1 = test system: CAKI-1
RPMI-8226 = test system: RPMI-8226
NCI-H522 = test system: NCI-H522
UACC-257 = test system: UACC-257
786-0 = test system: 786-0
SF-268 = test system: SF-268
CCRF-CEM = test system: CCRF-CEM
MCF7 = test system: MCF7
A498 = test system: A498
OVCAR-8 = test system: OVCAR-8
SK-MEL-5 = test system: SK-MEL-5
U-251 = test system: U-251
HT-29 = test system: HT-29
T47D = test system: T47D
MDA-MB-435 = test system: MDA-MB-435
HCT-15 = test system: HCT-15
M14 = test system: M14
UACC-62 = test system: UACC-62
HCT-116 = test system: HCT-116
SW-620 = test system: SW-620
HOP-92 = test system: HOP-92
TK-10 = test system: TK-10
NCI-H460 = test system: NCI-H460
RXF 393 = test system: RXF 393
A549 = test system: A549
LOX IMVI = test system: LOX IMVI
MDA-N = test system: MDA-N
ACHN = test system: ACHN
SNB-19 = test system: SNB-19
HOP-62 = test system: HOP-62
SK-MEL-28 = test system: SK-MEL-28
OVCAR-4 = test system: OVCAR-4
IGROV-1 = test system: IGROV-1
SK-MEL-2 = test system: SK-MEL-2
NCI-H226 = test system: NCI-H226
HCC 2998 = test system: HCC 2998
OVCAR-3 = test system: OVCAR-3
SN12C = test system: SN12C
SNB-75 = test system: SNB-75
K562 = test system: K562
Malme-3M = test system: Malme-3M
SF-539 = test system: SF-539
DU-145 = test system: DU-145
MOLT-4 = test system: MOLT-4
NCI/ADR-RES = test system: NCI/ADR-RES
HL-60 = test system: HL-60
COLO 205 = test system: COLO 205
SF-295 = test system: SF-295

In the case of CC(CCC#N)(CCC#N)C(=O)CC(O)(C(F)(F)F)C(F)(F)F, the GI50 (EKVX) is reported as 20.7 µM (inactive), the GI50 (Hs-578T) is reported as 15.3 µM (inactive) and the GI50 (NCI-H23) is reported as 5.43 µM (inactive). The GI50 (PC-3) was 11.9 µM (inactive), the GI50 (UO-31) was 4.08 µM (inactive) and the GI50 (KM12) was 18.1 µM (inactive). For the same compound, the GI50 (OVCAR-5) was 12.3 µM (inactive), the GI50 (SR) was 1.4 µM (inactive) and the GI50 (SK-OV-3) was 47 µM (inactive). For the same compound, the GI50 (MDA-MB-231) was 4.06 µM (inactive), the GI50 (CAKI-1) was 4.09 µM (inactive) and the GI50 (RPMI-8226) was 2.64 µM (inactive). For the same compound, the GI50 (NCI-H522) was 1.85 µM (inactive), the GI50 (UACC-257) was 6.41 µM (inactive) and the GI50 (786-0) was 2.12 µM (inactive). For the same compound, the GI50 (SF-268) was 7.89 µM (inactive), the GI50 (CCRF-CEM) was 1.54 µM (inactive) and the GI50 (MCF7) was 6.5 µM (inactive). For the same compound, the GI50 (A498) was 20.6 µM (inactive), the GI50 (OVCAR-8) was 3.3 µM (inactive) and the GI50 (SK-MEL-5) was 13.3 µM (inactive). For the same compound, the GI50 (U-251) was 9.16 µM (inactive), the GI50 (HT-29) was 6.65 µM (inactive) and the GI50 (T47D) was 4.22 µM (inactive). For the same compound, the GI50 (MDA-MB-435) was 5.6 µM (inactive), the GI50 (HCT-15) was 2.28 µM and the GI50 (M14) was 2.1 µM (inactive). The GI50 (UACC-62) was 6.19 µM (inactive), the GI50 (HCT-116) was 2.8 µM (inactive) and the GI50 (SW-620) was 2.76 µM (inactive). For the same compound, the GI50 (HOP-92) was 4.86 µM (inactive), the GI50 (TK-10) was 7.71 µM (inactive) and the GI50 (NCI-H460) was 16.6 µM (inactive). For the same compound, the GI50 (RXF 393) was 2.07 µM (inactive), the GI50 (A549) was 10.1 µM (inactive) and the GI50 (LOX IMVI) was 2.07 µM (inactive). The GI50 (MDA-N) was 1.73 µM (inactive), the GI50 (ACHN) was 4.13 µM (inactive) and the GI50 (SNB-19) was 23.7 µM (inactive). The GI50 (HOP-62) was 19.8 µM (inactive), the GI50 (SK-MEL-28) was 11 µM (inactive) and the GI50 (OVCAR-4) was 5.02 µM (inactive). The GI50 (IGROV-1) was 13.2 µM (inactive), the GI50 (SK-MEL-2) was 33.7 µM (inactive) and the GI50 (NCI-H226) was 19.8 µM (inactive). The GI50 (HCC 2998) was 17 µM (inactive), the GI50 (OVCAR-3) was 2.76 µM (inactive) and the GI50 (SN12C) was 7.24 µM (inactive). The GI50 (SNB-75) was 14.9 µM (inactive), the GI50 (K562) was 1.36 µM (inactive) and the GI50 (Malme-3M) was 5.02 µM (inactive). The GI50 (SF-539) was 3.44 µM (inactive), the GI50 (DU-145) was 11.4 µM (inactive) and the GI50 (MOLT-4) was 0.547 µM (active). For the same compound, the GI50 (NCI/ADR-RES) was 5.94 µM (inactive), the GI50 (HL-60) was 0.817 µM (active) and the GI50 (COLO 205) was 2.28 µM (inactive). The GI50 (SF-295) was 18.2 µM (inactive).
